We go through 19 compounds from patent US7696246B2 (Ligand Pharmaceuticals Incorporated, priority 1999, dated 2010).

The target of assay [1] is T1, human AR (Homo sapiens, UniProt P10275).
T1 sequence (P10275 1-920): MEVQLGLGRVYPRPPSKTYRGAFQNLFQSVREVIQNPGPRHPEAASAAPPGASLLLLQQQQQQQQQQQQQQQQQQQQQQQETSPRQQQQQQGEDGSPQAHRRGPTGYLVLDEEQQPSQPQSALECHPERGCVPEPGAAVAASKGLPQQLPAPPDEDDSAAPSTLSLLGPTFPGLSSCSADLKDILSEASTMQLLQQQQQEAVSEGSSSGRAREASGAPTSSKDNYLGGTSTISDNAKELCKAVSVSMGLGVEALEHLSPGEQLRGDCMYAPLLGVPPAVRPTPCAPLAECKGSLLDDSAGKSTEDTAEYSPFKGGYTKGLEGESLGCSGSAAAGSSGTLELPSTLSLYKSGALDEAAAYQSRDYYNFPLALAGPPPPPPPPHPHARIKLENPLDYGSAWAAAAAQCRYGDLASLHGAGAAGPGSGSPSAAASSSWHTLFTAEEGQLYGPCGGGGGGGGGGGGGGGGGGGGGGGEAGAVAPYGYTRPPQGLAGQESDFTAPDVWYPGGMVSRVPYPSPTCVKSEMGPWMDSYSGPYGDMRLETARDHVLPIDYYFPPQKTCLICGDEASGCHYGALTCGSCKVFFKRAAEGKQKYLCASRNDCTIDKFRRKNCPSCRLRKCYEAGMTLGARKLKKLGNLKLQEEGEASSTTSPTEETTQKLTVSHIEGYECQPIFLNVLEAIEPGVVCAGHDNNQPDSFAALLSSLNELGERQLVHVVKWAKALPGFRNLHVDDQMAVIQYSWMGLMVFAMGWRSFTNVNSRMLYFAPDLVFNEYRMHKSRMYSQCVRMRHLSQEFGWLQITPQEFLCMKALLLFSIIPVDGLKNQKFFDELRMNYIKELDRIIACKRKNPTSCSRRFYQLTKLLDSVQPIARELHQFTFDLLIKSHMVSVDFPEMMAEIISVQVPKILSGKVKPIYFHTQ
The assay is described as follows: Co-transfection assay, AR agonist activity (CV-1 cells, MTV-LUC reporter). It is filed as cell-based. Conditions: CV-1 cells; for EC50: agonist potency EC50; for AR Agonist CV-1 Cells Efficacy (%): percent maximal response relative to reference agonist DHT.

The target of assay [2] is T1, human AR. Kind of assay: Co-transfection assay, AR antagonist activity (CV-1 cells, in presence of DHT). Type of assay: cell-based. Conditions: for AR Antagonist CV-1 Cells Efficacy (%): percent maximal inhibition, DHT at its EC50.
Assay [3] concerns the target T1, human AR. The assay is described as follows: AR whole cell competitive binding assay (COS-1 cells, 3H-DHT). Conditions: 1 nM 3H-DHT, Cheng-Prusoff.
Description: AR Binding: For the whole cell binding assay, COS-1 cells in 96-well microtiter plates containing DMEM-10% FBS were transfected as described above with the following plasmid DNA: pRShAR (2 ng/well), pRS-β-Gal (50 ng/well) and pGEM (48 ngcwell). Six hours after transfection, media was removed, the cells were washed with PBS and fresh media was added. The next day, the media was changed to DMEM-serum free to remove any endogenous ligand that might be complexed with the receptor in the cells.
Three replicates were used for each sample. […] The remaining media was removed, the cells were washed three times with PBS to remove unbound ligand, and cells were lysed with a Triton X-100-based buffer.
For the saturation analyses, the difference between the total binding and the nonspecific binding, normalized by the β-Gal rate, was defined as specific binding. […] The Ki values were determined by application of the Cheng-Prusoff equation to the IC50 values, where:
After correcting for non-specific binding, IC50 values were determined. […] The IC50 value was determined graphically from a log-logit plot of the data. The Ki values were determined by application of the Cheng-Prusoff equivuation to the IC50 values, the labeled ligand concentration and the Kd of the labeled ligand.
[4] abbreviates: read-out: AR Antagonist CV-1 Cells Potency.

Like-named read-outs stand apart in the source and are kept apart here. Where only a bound is given, the exact number is not on record here.

For orientation: EC50 means the concentration giving half of the maximal effect. Read a low EC50 as higher potency in that assay. As usually defined, the Ki is a dissociation constant, usually derived from enzyme kinetics or from competition with a known ligand.

As to `COc1cccc(-c2ccc3[nH]c(=O)cc(C)c3c2)c1` [Compound 758, 4-Methyl-6-(3-methoxyphenyl)-2(1H)-quinolinone], on human AR [1], the EC50 is > 10000 nM. Also, on human AR [2], the “AR Antagonist CV-1 Cells Efficacy (%)” value came out at 94%. On human AR [2] (setting [4]), the IC50 amounted to 87 nM. Also, the Ki on human AR [3] was determined as 3.6 nM.

For the compound `CCCC1CCC(CCC)N1c1ccc2[nH]c(=O)cc(C(F)(F)F)c2c1` (racemic) [Compound 365, (±)-6-(2,5-trans-Dipropyl-1-pyrrolidino)-4-trifluoromethyl-2(1H)-quinolinone], on human AR [1], the EC50 was 55 nM and the “AR Agonist CV-1 Cells Efficacy (%)” value was 36%. In addition, the “AR Antagonist CV-1 Cells Efficacy (%)” value on human AR [2] stood at 43%. Further, the IC50 on human AR [2] (setting [4]) amounted to 14 nM. At human AR [3], the inhibition constant Ki is 124 nM.

For `CC(C)CN(CC(C)C)c1ccc2[nH]c(=O)cc(C(F)(F)F)c2c1` [Compound 221, 6-Diisobutylamino-4-trifluoromethyl-2(1H)-quinolinone], on human AR [1], the EC50 came to 23 nM and the “AR Agonist CV-1 Cells Efficacy (%)” value is reported as 114%. Further, the “AR Antagonist CV-1 Cells Efficacy (%)” value on human AR [2] is “na (na = not active (i.e. efficacy of <20 and potency of >10,000))”. Besides, the IC50 at human AR [2] (setting [4]) was > 10000 nM. For the same compound, the Ki at human AR [3] turned out to be 147 nM.

Take `O=c1cc(C(F)(F)F)c2cc(N3CCCCC3CCOCc3ccccc3)ccc2[nH]1` (racemic) [Compound 445, (±)-6-(2-Benzyloxyethyl-1-piperidino)-4-trifluoromethyl-2(1H)-quinolinone]: at human AR [1], the EC50 was 26 nM and the “AR Agonist CV-1 Cells Efficacy (%)” value turned out to be 104%. Moreover, on human AR [2], the IC50 is > 10000 nM; the “AR Antagonist CV-1 Cells Efficacy (%)” value is “na (na = not active (i.e. efficacy of <20 and potency of >10,000))”. This compound yielded a Ki at human AR [3] of 5.8 nM.

With `O=C1C=C(c2ccc3[nH]c(=O)cc(C(F)(F)F)c3c2)CCC1` [Compound 655, 6-(3-Oxo-1-)cyclohexenyl-4-trifluoromethyl-2(1H)-quinolinone], on human AR [1], the EC50 was > 10000 nM. The “AR Antagonist CV-1 Cells Efficacy (%)” value on human AR [2] was 70%. Further, the IC50 on human AR [2] (setting [4]) was 70 nM. The Ki at human AR [3] is > 1000 nM.

Take `CC1(C)OC(=O)Nc2ccc(N(CC(F)(F)F)CC(F)(F)F)cc21` [Compound 490, 1,4-Dihydro-4,4-dimethyl-6-(bis-N,N-2,2,2-trifluoroethyl)amino-1,3-benzo [d-]oxazin-2-one]: at human AR [1], the midpoint of the response, the EC50, lay at 12 nM and the “AR Agonist CV-1 Cells Efficacy (%)” value is reported as 113%. Also, the “AR Antagonist CV-1 Cells Efficacy (%)” value at human AR [2] is “na (na = not active (i.e. efficacy of <20 and potency of >10,000))”. Further, the IC50 at human AR [2] (setting [4]) was > 10000 nM. This compound also registered an inhibitory constant (Ki) at human AR [3] of 12 nM.

Regarding `O=c1cc(C(F)(F)F)c2cc(C3CCCCC3)ccc2[nH]1` [Compound 616, 6-Cyclohexyl-4-trifluoromethyl-2(1H)-quinolinone], the half-maximal effective concentration (EC50) on human AR [1] was > 10000 nM. Besides, the “AR Antagonist CV-1 Cells Efficacy (%)” value at human AR [2] turned out to be 92%. The IC50 at human AR [2] (setting [4]) was found to be 17 nM. At human AR [3], this compound displayed a Ki of 15 nM.

For the compound `CCCN(c1ccc2[nH]c(=O)cc(C(F)(F)F)c2c1)C(C)CC` (racemic) [Compound 255, (±)-6-(N-Propyl-N-1-methylpropyl)amino-4-trifluoromethyl-2(1H)-quinolinone], on human AR [1], the EC50 was found to be 25 nM and the “AR Agonist CV-1 Cells Efficacy (%)” value came to 135%. The “AR Antagonist CV-1 Cells Efficacy (%)” value at human AR [2] is “na (na = not active (i.e. efficacy of <20 and potency of >10,000))”. Further, the IC50 on human AR [2] (setting [4]) was > 10000 nM. At human AR [3], this compound came in with a Ki of 67 nM.

Regarding `Nc1cc2[nH]c(=O)cc(C(F)(F)F)c2cc1OCC(F)(F)F` [Compound 571, 7-Amino-6-(2,2,2-trifluoroethoxy)-4-trifluoromethyl-2(1H)-quinolinone], at human AR [1], the EC50 is > 10000 nM. The “AR Antagonist CV-1 Cells Efficacy (%)” value on human AR [2] amounted to 69%. The IC50 on human AR [2] (setting [4]) amounted to 14 nM. The inhibition constant (Ki) on human AR [3] turned out to be 71 nM.

With `O=c1cc(C(F)(F)F)c2cc(N3CCCCC3)ccc2[nH]1` [Compound 311, 6-(1-Piperidinyl)-4-trifluoromethyl-2(1H)-quinolinone], on human AR [1], a half-maximal response (EC50) required 143 nM and the “AR Agonist CV-1 Cells Efficacy (%)” value is 42%. Besides, on human AR [2], the “AR Antagonist CV-1 Cells Efficacy (%)” value was determined as 38%. For the same compound, the IC50 at human AR [2] (setting [4]) worked out at 13 nM. The affinity at human AR [3] corresponds to a Ki of 12 nM.

`CS(=O)(=O)N(CC(F)(F)F)c1ccc2[nH]c(=O)cc(C(F)(F)F)c2c1` [Compound 295, 6-(N-2,2,2-Trifluoroethyl-N-methylsufonyl)amino-4-trifluoromethyl-2(1H)-quinolinone]: at human AR [1], the EC50 was determined as 50 nM and the “AR Agonist CV-1 Cells Efficacy (%)” value is given as 30%. For the same compound, on human AR [2], the “AR Antagonist CV-1 Cells Efficacy (%)” value worked out at 49%. Further, the IC50 on human AR [2] (setting [4]) turned out to be 3.6 nM. Moreover, at human AR [3], the affinity, expressed as Ki, was 86 nM.

As to `O=c1cc(C(F)(F)F)c2cc(N(CC(F)(F)F)CC(F)(F)F)ccc2o1` [Compound 474, 6-(bis-N,N-2,2,2-Trifluoroethyl)amino-4-trifluoromethylcoumarin], on human AR [1], the midpoint of the response, the EC50, lay at 0.6 nM and the “AR Agonist CV-1 Cells Efficacy (%)” value turned out to be 73%. Besides, at human AR [2], the “AR Antagonist CV-1 Cells Efficacy (%)” value was “na (na = not active (i.e. efficacy of <20 and potency of >10,000))”. The IC50 at human AR [2] (setting [4]) is > 10000 nM. At human AR [3], this compound came in with a Ki of 1.8 nM.

On to `Cn1c(=O)cc(C(F)(F)F)c2cc(N(CC(F)(F)F)CC(F)(F)F)ccc21` [Compound 297, 1-Methyl-6-(bis-2,2,2-trifluoroethyl)amino-4-trifluoromethyl-2(1H)-quinolinone], for which, at human AR [1], it took 22 nM to reach a half-maximal effect (EC50) and the “AR Agonist CV-1 Cells Efficacy (%)” value worked out at 43%. At human AR [2], the “AR Antagonist CV-1 Cells Efficacy (%)” value is on record as 43%. Moreover, the IC50 at human AR [2] (setting [4]) turned out to be 3.2 nM. On human AR [3], this compound showed an inhibition constant Ki of 58 nM.

Turning to `CCCN(CC1CC1)c1ccc2[nH]c(=O)cc(C(F)(F)F)c2c1` [Compound 254, 6-(N-Propyl-N-cyclopropylmethyl)amino-4-trifluoromethyl-2(1H)-quinolinone], on human AR [1], the half-maximal effective concentration (EC50) is 0.9 nM and the “AR Agonist CV-1 Cells Efficacy (%)” value was determined as 78%. Moreover, at human AR [2], the “AR Antagonist CV-1 Cells Efficacy (%)” value was “na (na = not active (i.e. efficacy of <20 and potency of >10,000))”. For the same compound, at human AR [2] (setting [4]), the IC50 was > 10000 nM. Affinity at human AR [3] was put at a Ki of 12 nM.

On to `O=c1cc(C(F)(F)F)c2cc(-c3ccc(Cl)cc3Cl)ccc2[nH]1` [Compound 753, 4-Trifluoromethyl-6-(2,4-dichlorophenyl)-2(1H)-quinolinone], for which, on human AR [1], the EC50 is > 10000 nM. At human AR [2], the “AR Antagonist CV-1 Cells Efficacy (%)” value amounted to 76%. Besides, the IC50 on human AR [2] (setting [4]) stood at 51 nM. At human AR [3], the Ki was 74 nM.

Consider `O=c1[nH]c2cc(NC3CCCC3)ccc2c(C(F)(F)F)c1F` [Compound 536, 3-Fluoro-7-cyclopentylamino-4-trifluoromethyl-2(1H)-quinolinone], for which the 50% effective concentration (EC50) on human AR [1] was > 10000 nM. In addition, on human AR [2], the “AR Antagonist CV-1 Cells Efficacy (%)” value was 76%. At human AR [2] (setting [4]), the IC50 worked out at 28 nM. At human AR [3], this compound returned an inhibition constant (Ki) of 188 nM.

Consider `CC1COC(C(F)(F)F)N1c1ccc2[nH]c(=O)cc(C(F)(F)F)c2c1` (racemic) [Compound 352, (±)-6-(2-Trifluoromethyl-5-trans-methyl-1-oxazolidino)-4-trifluoromethyl-2(1H)-quinolinone], for which, at human AR [1], the concentration giving a half-maximal response (EC50) was found to be 12 nM and the “AR Agonist CV-1 Cells Efficacy (%)” value is on record as 113%. Moreover, the “AR Antagonist CV-1 Cells Efficacy (%)” value on human AR [2] is “na (na = not active (i.e. efficacy of <20 and potency of >10,000))”. Also, on human AR [2] (setting [4]), the IC50 is > 10000 nM. Also, the Ki on human AR [3] was determined as 25 nM.

`CC(C)CN(CC(F)(F)F)c1ccc2[nH]c(=O)cc(C(F)(F)F)c2c1` [Compound 259, 6-(N-2,2,2-trifluoroethyl-N-isobutyl)amino-4-trifluoromethyl-2(1H)-quinolinone]: on human AR [1], the EC50 was 1.9 nM and the “AR Agonist CV-1 Cells Efficacy (%)” value is reported as 97%. Also, the “AR Antagonist CV-1 Cells Efficacy (%)” value at human AR [2] was “na (na = not active (i.e. efficacy of <20 and potency of >10,000))”. The IC50 at human AR [2] (setting [4]) was > 10000 nM. Also, on human AR [3], the Ki was determined as 6.3 nM.

Regarding `O=c1cc(C(F)(F)F)c2cc(N(CC(F)(F)C(F)(F)F)CC(F)(F)C(F)(F)F)ccc2[nH]1` [Compound 224, 6-(bis-2,2,3,3,3-Pentafluoropropyl)amino-4-trifluoromethyl-2(1H)-quinolinone], at human AR [1], a half-maximal response (EC50) required 41 nM and the “AR Agonist CV-1 Cells Efficacy (%)” value came to 108%. Also, the “AR Antagonist CV-1 Cells Efficacy (%)” value at human AR [2] was “na (na = not active (i.e. efficacy of <20 and potency of >10,000))”. On human AR [2] (setting [4]), the IC50 was > 10000 nM. Moreover, the Ki at human AR [3] came to 206 nM.
